The text below walks through data of patent US8741934B2, “Inhibitors of ion channels” (Pfizer Limited, priority 2007, dated 2014).

The target of the first test is T1, hSCN3A sodium channels (Homo sapiens, UniProt Q9NY46).
T1 construct: expressed in transfected cells
T1 sequence (Q9NY46 whole entry): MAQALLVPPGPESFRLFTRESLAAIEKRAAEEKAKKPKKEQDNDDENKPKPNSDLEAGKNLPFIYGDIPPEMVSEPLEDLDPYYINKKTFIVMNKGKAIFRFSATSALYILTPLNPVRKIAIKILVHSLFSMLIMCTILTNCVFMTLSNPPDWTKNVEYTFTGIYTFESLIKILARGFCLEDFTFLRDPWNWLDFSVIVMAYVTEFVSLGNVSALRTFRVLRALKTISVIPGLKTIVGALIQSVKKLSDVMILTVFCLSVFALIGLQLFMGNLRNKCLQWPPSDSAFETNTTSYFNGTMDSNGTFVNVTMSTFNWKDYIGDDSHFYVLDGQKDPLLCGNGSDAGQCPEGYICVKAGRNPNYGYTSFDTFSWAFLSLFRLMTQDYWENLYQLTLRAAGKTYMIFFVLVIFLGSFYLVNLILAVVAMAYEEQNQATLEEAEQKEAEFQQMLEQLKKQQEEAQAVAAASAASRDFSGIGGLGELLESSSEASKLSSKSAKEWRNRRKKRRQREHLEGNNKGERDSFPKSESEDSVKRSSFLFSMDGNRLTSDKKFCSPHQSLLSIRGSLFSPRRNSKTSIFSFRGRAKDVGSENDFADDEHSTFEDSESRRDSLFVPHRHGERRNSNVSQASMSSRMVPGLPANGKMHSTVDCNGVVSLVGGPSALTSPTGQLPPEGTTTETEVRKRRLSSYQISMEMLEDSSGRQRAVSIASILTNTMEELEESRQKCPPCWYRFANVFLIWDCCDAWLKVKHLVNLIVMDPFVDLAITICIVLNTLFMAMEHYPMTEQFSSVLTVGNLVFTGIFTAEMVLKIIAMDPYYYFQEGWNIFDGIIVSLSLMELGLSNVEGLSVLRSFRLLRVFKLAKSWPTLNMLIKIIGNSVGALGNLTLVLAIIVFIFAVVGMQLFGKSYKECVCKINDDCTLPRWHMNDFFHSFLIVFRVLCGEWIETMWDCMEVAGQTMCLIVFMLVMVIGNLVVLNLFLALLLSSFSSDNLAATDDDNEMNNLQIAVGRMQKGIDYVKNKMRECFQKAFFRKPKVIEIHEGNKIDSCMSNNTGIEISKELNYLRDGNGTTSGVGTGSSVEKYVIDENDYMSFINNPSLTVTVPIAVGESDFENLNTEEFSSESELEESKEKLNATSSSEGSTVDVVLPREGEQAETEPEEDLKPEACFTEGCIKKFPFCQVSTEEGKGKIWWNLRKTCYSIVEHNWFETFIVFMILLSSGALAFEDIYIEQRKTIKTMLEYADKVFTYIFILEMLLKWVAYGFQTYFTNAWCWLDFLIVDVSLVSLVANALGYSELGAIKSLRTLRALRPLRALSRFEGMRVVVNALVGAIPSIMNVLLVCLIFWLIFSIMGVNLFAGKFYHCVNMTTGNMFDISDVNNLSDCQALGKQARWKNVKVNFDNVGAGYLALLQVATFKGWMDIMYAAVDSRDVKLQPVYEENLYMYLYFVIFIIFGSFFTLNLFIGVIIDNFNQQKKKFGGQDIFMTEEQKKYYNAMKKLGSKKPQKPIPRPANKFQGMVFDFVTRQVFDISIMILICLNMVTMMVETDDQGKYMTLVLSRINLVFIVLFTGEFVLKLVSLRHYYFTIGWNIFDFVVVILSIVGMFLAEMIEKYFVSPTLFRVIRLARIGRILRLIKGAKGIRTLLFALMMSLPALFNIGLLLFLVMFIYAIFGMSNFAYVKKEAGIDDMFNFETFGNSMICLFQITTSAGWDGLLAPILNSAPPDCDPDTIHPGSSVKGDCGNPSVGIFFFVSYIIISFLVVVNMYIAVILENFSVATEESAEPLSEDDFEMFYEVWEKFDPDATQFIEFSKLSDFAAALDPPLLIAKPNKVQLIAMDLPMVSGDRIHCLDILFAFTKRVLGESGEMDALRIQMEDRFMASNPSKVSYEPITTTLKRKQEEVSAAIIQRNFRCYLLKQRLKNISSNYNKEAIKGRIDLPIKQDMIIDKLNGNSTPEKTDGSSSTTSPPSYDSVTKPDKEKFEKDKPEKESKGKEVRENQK
As to the kind of experiment: hSCN3A electrophysiology, whole-cell patch-clamp or PatchXpress 7000, estimated IC-50 (Table B). The format is cell-based. Particulars: estimated IC-50; hSCN3A cells, whole-cell patch-clamp or PatchXpress 7000; read-out: SCN3A EIC-50. The method, boiled down:
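A 20 msec test pulse to 0 mV followed an 8 sec conditioning prepulse at each cell's measured V1/2. Room-temperature (22-24° C) recordings on HEK cells stably expressing the channel, conventional or PatchXpress.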
Take `O=C(NCc1ccc(-c2ccccc2)cc1)c1ccc(S(=O)(=O)Nc2nccs2)cc1` [Example 399, N-(biphenyl-4-ylmethyl)-4-[(1,3-thiazol-2-ylamino)sulfonyl] benzamide]: the IC50 is 30 nM.

With `Cn1cnc(NS(=O)(=O)c2ccc(C(=O)NCc3ccc(C(F)(F)F)cc3)cc2)n1` [Example 9, 4-{[(1-Methyl-1H-1,2,4-triazol-3-yl)amino]sulfonyl}-N-[4-(trifluoromethyl)benzyl]benzamide], the IC50 is over 10000 nM.

With `O=C(c1ccc(S(=O)(=O)Nc2nccs2)cc1)N1CCOC(COc2cc(F)cc(F)c2)C1` (stereo not drawn) [Example 262, 4-({2-[(3,5-Difluorophenoxy)methyl]morpholin-4-yl}carbonyl)-N-1,3-thiazol-2-ylbenzenesulfonamide], the IC50 was 6850 nM.

With `O=C(NCc1ccc(Cl)c(Cl)c1)c1ccc(S(=O)(=O)Nc2ncc(Cl)s2)c(F)c1` [Example 311, 4-{[(5-Chloro-1,3-thiazol-2-yl)amino]sulfonyl}-N-(3,4-dichlorobenzyl)-3-fluorobenzamide], the IC50 is 60 nM.

Turning to `O=C(NCc1cc(F)cc(F)c1)c1ccc(S(=O)(=O)Nc2nccs2)cc1` [Example 83, N-(3,5-difluorobenzyl)-4-[(1,3-thiazol-2-ylamino)sulfonyl]benzamide], the IC50 is 620 nM.

Regarding `CC(C)(NC(=O)c1ccc(S(=O)(=O)Nc2nccs2)cc1)c1cccc(C(F)(F)F)c1` [Example 125, N-{1-methyl-1-[3-(trifluoromethyl)phenyl]ethyl}-4-[(1,3-thiazol-2-ylamino)sulfonyl]benzamide], the IC50 was 6450 nM.

`O=C(NCc1ccc(C(F)(F)F)cc1)c1ccc(S(=O)(=O)Nc2ccon2)cc1` [Example 7, 4-[(Isoxazol-3-ylamino)sulfonyl]-N-[4-(trifluoromethyl)benzyl]benzamide]: the IC50 is 5870 nM.

For the molecule `O=C(NCc1ccc(C(F)(F)F)c(F)c1)c1ccc(S(=O)(=O)Nc2ncns2)c(F)c1` [Example 319, 3-Fluoro-N-[3-fluoro-4-(trifluoromethyl)benzyl]-4-[(1,2,4-thiadiazol-5-ylamino)sulfonyl]benzamide], the IC50 is 70 nM.

For the molecule `O=C(NCc1ccc(Oc2ccccc2)cc1)c1ccc(S(=O)(=O)Nc2nccs2)cc1` [Example 409, N-(4-phenoxybenzyl)-4-[(1,3-thiazol-2-ylamino)sulfonyl] benzamide], the IC50 was 40 nM.

For the molecule `O=C(NCc1ccc(C(F)(F)F)cc1)c1ccc(S(=O)(=O)Nc2ncc(Cl)s2)cc1` [Example 1, 4-{[(5-Chloro-1,3-thiazol-2-yl)amino]sulfonyl}-N-[4-(trifluoromethyl)benzyl]benzamide], the IC50 was 70 nM.

For the molecule `O=C(NCc1ccc(C(F)(F)F)c(F)c1)c1ccc(S(=O)(=O)Nc2ncc(Cl)s2)c(F)c1` [Example 310, 4-{[(5-Chloro-1,3-thiazol-2-yl)amino]sulfonyl}-3-fluoro-N-[3-fluoro-4-(trifluoromethyl)benzyl]benzamide], the IC50 is 50 nM.

Consider `O=C(NCCc1ccccc1Cl)c1ccc(S(=O)(=O)Nc2nccs2)cc1` [Example 96, N-[2-(2-chlorophenyl)ethyl]-4-[(1,3-thiazol-2-ylamino)sulfonyl]benzamide], for which the IC50 was 910 nM.

For the molecule `O=C(NCc1ccc(Cl)cc1Cl)c1ccc(S(=O)(=O)Nc2nccs2)cc1` [Example 413, N-(24-dichlorobenzyl)-4-[(1,3-thiazol-2-ylamino)sulfonyl] benzamide], the IC50 is 180 nM.

Regarding `O=C(NCc1ccc(C(F)(F)F)c(Cl)c1)c1ccc(S(=O)(=O)Nc2ncns2)cc1` [Example 324, N-[3-chloro-4-(trifluoromethyl)benzyl]-4-[(1,2,4-thiadiazol-5-ylamino)sulfonyl]benzamide], the IC50 was 30 nM.

Staying with this test, now noted: read-out: SCN3A EIC-50.
As for `O=C(NCc1ccc(C(F)(F)F)c(Cl)c1)c1ccc(S(=O)(=O)Nc2nccs2)cn1` [Example 341, N-[3-chloro-4-(trifluoromethyl)benzyl]-5-[(1,3-thiazol-2-ylamino)sulfonyl] pyridine-2-carboxamide], the IC50 was 190 nM.
